The target in data set [1] is T1, human recombinant caspase-1 (Homo sapiens, UniProt P29466).
T1 sequence (P29466 120-404): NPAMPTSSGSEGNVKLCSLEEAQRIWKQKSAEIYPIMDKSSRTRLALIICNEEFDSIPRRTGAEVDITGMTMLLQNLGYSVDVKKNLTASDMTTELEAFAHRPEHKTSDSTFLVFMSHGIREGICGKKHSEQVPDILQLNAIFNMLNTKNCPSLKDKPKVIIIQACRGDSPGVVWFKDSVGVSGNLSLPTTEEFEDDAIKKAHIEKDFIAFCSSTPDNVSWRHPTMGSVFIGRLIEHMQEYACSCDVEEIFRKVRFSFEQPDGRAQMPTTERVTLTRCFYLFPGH
As to the kind of experiment: Recombinant caspase-1 activity assay (kit). The data set is classed as biochemical. The note with it: caspase-1 assay kit. Here is the method: (4) Caspase-1 assay: Recombinant caspase-1 and a drug were allowed to react, and then activity measurement was performed using a caspase-1 assay kit (R&D Systems Inc., Minneapolis, Minn., USA).
Recombinant caspase-1 and a drug were allowed to react, and then activity was measured using a caspase-1 assay kit (R&D Systems Inc., Minneapolis, Minn., USA).

Data set [2] concerns the target T2, caspase-1 (Homo sapiens, UniProt P29466).
T2 construct: a caspase-1 assay was conducted using cell extracts; endogenous in cells; host or cells: HMC-1 (human mast cells)
T2 sequence (P29466 120-297 limits assumed): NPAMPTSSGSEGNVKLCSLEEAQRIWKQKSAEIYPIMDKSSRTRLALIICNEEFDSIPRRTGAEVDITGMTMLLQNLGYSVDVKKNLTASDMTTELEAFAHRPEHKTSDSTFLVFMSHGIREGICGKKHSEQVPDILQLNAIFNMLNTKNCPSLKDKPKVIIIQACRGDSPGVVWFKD
T2 sequence (P29466 317-404 limits assumed): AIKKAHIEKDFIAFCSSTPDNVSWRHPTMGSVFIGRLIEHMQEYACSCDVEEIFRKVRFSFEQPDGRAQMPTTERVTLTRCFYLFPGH
As to the kind of experiment: Caspase-1 assay using HMC-1 cell extracts. The data set is classed as cell-based.

The subject of data set [3] is DSS-induced animal model. Put plainly: DSS-induced inflammatory bowel disease (enteritis) model. The data set is classed as in vivo, C57BL/6 mice. The method, then:
Six-week-old female SPF (Specific pathogen-free) C57BL/6 mice were purchased from DuPont Biotech. The mice were allowed to freely ingest a feed and water after an acclimation period of 1 week in an animal room of Hoseo University Safety Evaluation Center maintained at temperature of 21±3° C., humidity of 50±20%, and light/darkness cycle of 12 h/12 h. All procedures in the present animal experiment were conducted after approved by the Animal Experimental Ethics Committee of Hoseo University (HTRC-15-19, and HTRC-16-22(2)).
Dextran sodium sulfate (cat no 160110 by Mpbio. corn) as a colitis inducer was diluted to 3% concentration in drinking water and orally administered to mice to induce enteritis. The mice were divided into 6 groups and DW was administered to the animals of a control, and 1.0 mg/kg and 10 mg/kg of the test material were orally administered to the animals of the experimental groups once a day for […]. Sulfasalazine (100 mg/kg) dissolved in crude olive oil was orally administered once a day to the animals of a positive control. In acute cases, disease progression levels were examined after 5 days of administration. In chronic cases, disease progression levels were examined 15 days and 30 days after the 5 days of administration (reference: Toxicology Reports 2 (2015) 10391045-Caryophyllene attenuates dextran sulfate sodium-induced colitis in mice via modulation of gene expression associated mainly with colon inflammation).
Body weights were measured once for 5 days or more during the test period. The measured weights were quantified as 0 point if there was no difference compared with the normal control, 1 point for weight loss rate of 15%, 2 points for 510%, 3 points for 1015%, and 4 points for >15%. Feces observation was performed to examine the incidence of diarrhea, and the results thereof were quantified as scores (0, normal stool; 1, mildly soft stool; 2, very soft stool; 3, very soft stool (no regular shape); 4, watery stool).
Rectal tissues and blood were collected from 5 individuals for each of the autopsy times. Yuhan ketamine 50® (Yuhan Corporation, Korean) and Rompun (Bayer, USA) were mixed in a ratio of 3:1, and then used to anesthetize animals via muscular injection. Each anesthetized animal was subjected to laparotomy to collect blood from the abdominal artery, and after blood collection, the abdominal artery was cut and subjected to venesection and death to collect rectal tissue. The length and weight of the collected tissue were measured to calculate weight per 1 cm of the tissue. Some of the collected tissues were used in biopsy, and some thereof were frozen in liquid nitrogen and stored at −70° C. before analysis. […]

Data set [4] concerns HaCat cells. Put plainly: Cytotoxicity (MTT-assay) in HaCat cells. Format: cell-based, human. The method, then:
(1) Cell culture: A human skin cell line (HaCat cells) was cultured in RPMI containing 10% FBS at 37° C. and 5% CO2. Candidate materials were dissolved in DMSO, and then filtered using a 0.22 μm filter. The resulting candidate materials were diluted with DMSO and the HaCat cells were treated therewith.
(2) Cytotoxicity (MTT-assay): After stabilizing HaCat cells (3×10^5 cells/ml) for 1 hour, they were treated with candidate materials variously beginning from a concentration of 10 μM, followed by treatment with Poly (I:C) for 8 hours. Then, the medium was replaced by a fresh medium, 5 mg/ml of an MTT solution was then added thereto, and the mast cells were incubated at 37° C. for 4 hours. 250 DMSO was added to the HaCat cells, MTT formazan was extracted therefrom, and absorbance of each well was measured at 540 nm using an ELISA reader.

Data set [5] has as its system TSLP secretion from human mast cells (HMC-1 cells). As to the kind of experiment: TSLP secretion ELISA in PMACI-stimulated mast cells. Format: cell-based. The note with it: PMACI-stimulated HMC-1 cells, ELISA. The method, then:
(§1) (1) Cell culture: A human mast cell line (HMC-1) was cultured in an IMDM supplemented with 10% FBS at 37° C. and 5% CO2. Candidate materials were dissolved in DMSO, and then filtered using a 0.22 μm filter. The resulting candidate materials were diluted with DMSO and the HMC-1 cells were treated therewith.
(3) Enzyme-linked immunosorbent assay (ELISA): Mast cells (3×10^6 cells/ml) were stabilized for 1 hour, and then treated with 0.1 μM, 1 μM, and 10 μM of candidate materials, followed by treatment with PMACI for 8 hours. The mast cells were centrifuged to obtain supernatants. To measure the amount of TSLP secreted from the cells, ELISA was used. The ELISA was performed in 96-well plates coated with 1 μg/well of TSLP capture Ab. The coated plates were washed twice with PBS. The cells were treated with PBS containing 10% FBS for 2 hours. Thereafter, the cells were washed with PBS containing 0.05% Tween-20 (Sigma), and recombinant TSLP was used to draw a standard curve. Subsequently, the plates were exposed to a biotinylated-TSLP antibody, Avidin peroxidase, an ARTS substrate containing 30% H2O2, and then measured at 405 nm.
(In general: In an ELISA, binding on a coated surface is turned into a signal by an enzyme label.)

The test system of data set [6] is HMC-1 cells. As to the kind of experiment: Cytotoxicity (MTT-assay) in HMC-1 cells. Format: cell-based, human. The note with it: 10 μM. Here is the method:
as §1
[…] After culturing, the medium was replaced by a fresh medium, 5 mg/ml of an MTT solution was then added thereto, and the mast cells were incubated at 37° C. for 4 hours. 250 DMSO was added to the mast cells, MTT formazan was extracted therefrom, and absorbance of each well was measured at 540 nm using an ELISA reader.
In general terms: Tetrazolium dyes change colour on reduction, which living cells bring about.

Data set [7] concerns balb/c mice with DNCB-induced atopic dermatitis. Put plainly: DNCB-induced atopic dermatitis model. The data set is classed as in vivo. The note with it: 0.1% dexamethasone. From the text: (5) Reverse transcription-polymerase chain reaction (RT-PCR) quantitative real time PCR: Total RNA was isolated from cells and tissues, and cDNA was synthesized using a reverse transcriptase and was then reacted with cytokine primers to be analyzed, followed by PCR and real-time PCR. The RT-PCR products were subjected to electrophoresis using 1.5% agarose gel for analysis.
A. Experimental animal: 5-week-old male BALB/c mice obtained from. Daehan Biolink (Eumseong, Chungbuk) were adapted for 2 weeks in a clean animal breeding room (small animal room #2-302) at Hoseo University Safety Evaluation Center, set under environmental conditions: temperature of 22±3° C.; relative humidity of 50±20%; ventilation frequency of 10 to 15 times/hour, illumination for 12 hours; and illuminance of 150 Lux to 300 Lux, and then used in an experiment.
4 experimental animals were accommodated in each of polycarbonate cages (270×500×200 mm, KYERYONG SCIENCE). Feed (5053-Picolab Rodent 20, PMI Nutrition International) and drinking water (ultraviolet sterilized filtered water) were allowed to ingest freely. All procedures of the experiment were conducted after approved by the Ethics Committee of the Hoseo University Safety Evaluation Center (HTRC-15-19).
B. Dermatitis induction: Hairs on the back of each mouse were removed and maintained for 24 hours, and then 150 μl of a 1% 2,4-dinitrochlorobenzene(DNCB) solution (acetone: olive oil=3:1) was applied on the hair-removed site once a week for 3 weeks. After week 3, the DNCB solution was applied on the site twice a week for 3 weeks to induce atopic dermatitis.
C. Treatment: Mice were divided into 6 groups, and 0.5% DMSO was applied on animals as a control and 200 μl of each of 0.01 μM, 0.1 μM, and 1 μM test material was applied on animals as experimental groups for 3 weeks. 50 μl of 0.1% dexamethasone dissolved in a crude alcohol was applied on animals as a positive control at intervals of 2 days.
D. Biopsy: After application of the test material was completed, the dorsal skin of each experimental animal was incised under heart anesthesia, some of them were rapidly frozen using liquid nitrogen and stored at −70° C. before analysis, and the remainder was fixed with 10% neutral buffered formalin for 24 hours. The fixed tissues were prepared into slides through general tissue processing, and then subjected to hematoxylin & eosin (H&E) staining to measure the thickness of the epidermal layer. In addition, toluidine blue staining was performed to observe a quantitative change of mast cells. While the stained tissues were observed by an optical microscope, the thickness of the epidermal layer and the number of mast cells were obtained using an image analyzer (Olympus DP-21).
E. IgE level measurement: IgE concentration in blood was measured by (SHIBAYAGI, Japan) using serum collected when autopsy was performed. 50 μL of an IgE standard solution and the sample were placed in antibody-attached 96 wells and allowed to react for 2 hours, and then 50 μL of a biotin-conjugated anti-IgE antibody solution was added to each well and allowed to react for 2 hours. Thereafter, the resulting sample was reacted with a HRP-avidin solution for 1 hour and a chromogenic substrate (TBM) reagent for 20 minutes, and the reaction was stopped using a reaction stopper. Absorbance of the sample was measured at 450 nm using ELISA (Molecular devices Emax).

Consider `[H]/N=C(\N/C(=N/[H])Nc1ccc(Cl)cc1)NC(C)C` [IPS-07004], for which, in data set [1], the “recombinant caspase-1 activity” value was “inhibits”. The “caspase-1 activity in HMC-1 cells” value in data set [2] is “inhibits”. The “enteritis inhibitory activity (ratio of enteric weight to enteric length, wt/cm)” value in data set [3] (10 mg/kg oral, compared to DSS control) was “superior enteritis inhibitory activity”. Also, the melena entry in data set [3] (compared to the DSS-induced group, oral) is listed as “significantly decreased”. For the same molecule, the “cytotoxicity (MTT-assay)” value in data set [4] is recorded as “no cytotoxicity”.
For the molecule `O=C([O-])CC(=O)NC12CC3CC(CC(C3)C1)C2.[Na+]` [IPS-07003], the “TSLP secretion from mast cells” value in data set [5] was “significantly inhibited”. Besides, the “cytotoxicity (MTT-assay)” value in data set [6] was “did not exhibit cytotoxicity”.
The like results for `COc1ccc(NS(=O)(=O)c2cccc(S(=O)(=O)c3cccc(S(=O)(=O)Nc4ccc(OC)cc4)c3)c2)cc1` [IPS-07002] were, in that order, “significantly inhibited” and “did not exhibit cytotoxicity”.
`C[C@@H]1C[C@H]2[C@@H]3CCC4=CC(=O)C=C[C@]4(C)[C@@]3(F)[C@@H](O)C[C@]2(C)[C@@]1(O)C(=O)CO` [dexamethasone, reference compound] had an epidermal thickness in data set [7] (DNCB group 87.1±13.0, normal 24.5±10.3) of 39.9±9.4 μm. In addition, the “blood IgE level” value in data set [7] (DNCB group 790.0±151.8, no statistical significance) was determined as 703.8±86.5.

Source of the values: patent publication US10278931B2, “Composition for treatment of inflammatory bowel disease and atopic dermatitis” (INNOPHARMASCREEN INC., priority 2015, dated 2019).
